Test: xn = mol fraction of the nth substance listed
Conditions: 101 kPa, Liquid; for speed of sound: Frequency=3 MHz, Sing-around technique in a fixed-path interferometer; for mass density: Vibrating tube method

COC(C)(C)C [2-methoxy-2-methylpropane] + CCCCO
Conditions	mass density, 298.15 K [kg/m3]	mass density, 308.15 K [kg/m3]	mass density, 318.15 K [kg/m3]	mass density, 328.15 K [kg/m3]	speed of sound, 298.15 K [m/s]	speed of sound, 308.15 K [m/s]	speed of sound, 318.15 K [m/s]	speed of sound, 328.15 K [m/s]
x1 = 0.03132	803.61	795.86	788.07	780.19	1233.9	1200	1166.3	1132.8
x1 = 0.06569	801.27	793.42	785.54	777.56	1227	1192.7	1158.4	1124.4
x1 = 0.1315	796.77	788.76	780.66	772.49	1213.6	1178.4	1143	1108.2
x1 = 0.193	792.46	784.25	775.99	767.64	1200.7	1164.5	1128.5	1092.7
x1 = 0.2647	787.54	779.11	770.65	762.09	1185.7	1148.6	1111.7	1075
x1 = 0.3401	782.26	773.61	764.93	756.13	1170.3	1131.9	1094	1056.4
x1 = 0.3916	778.65	769.83	761.01	752.07	1159.3	1120.5	1082	1043.8
x1 = 0.4652	773.54	764.48	755.43	746.28	1144.3	1104.6	1065.2	1026.3
x1 = 0.5451	768.04	758.63	749.33	739.91	1128.3	1087.4	1047.2	1007
x1 = 0.6001	764.05	754.64	745.19	735.66	1117.3	1076.1	1034.9	995.48
x1 = 0.6708	759.06	749.44	739.77	729.95	1103.5	1061.5	1019.5	978.48
x1 = 0.7347	754.56	744.74	734.85	724.9	1091.3	1048.4	1005.7	963.43
x1 = 0.7953	750.27	740.28	730.2	–	1079.5	1036	992.74	–
x1 = 0.8755	744.44	734.2	723.89	713.5	1063.6	1019	974.75	932.29
x1 = 0.9367	739.95	729.44	719.05	708.44	1050.6	1005.4	960.39	917.28
x1 = 1	735.22	724.64	714.01	703.38	1036.4	990.57	944.94	–
